# Results from patent publication US8377485B2, “Antimicrobial composition and use thereof” (Oligo Basics Industria e Comercio de Racao Ltda, priority 2007, dated 2013).
# Assays:
# bacteria [1] = assay: Determination of sensitivity of bacteria (Table 8); assay type: cell-based; conditions: product at 50, 40, 30 ppm (columns 10-12)
# Experimental: (§1) The purpose was to determine the antimicrobial action of a combination of cashew nut liquid and ricinoleic acid, and the effects on yeast (Saccharomyces cerevisiae) during alcoholic fermentation, response to different dosages and under acidic conditions. The items below were evaluated: • Laboratory fermentation with Saccharomyces cerevisiae by evaluating the feasibility and growth of yeast, in addition to bacteria developed at different concentrations of the products and mixtures; • Evaluation of the deflocculation power of yeast in fermentations at several dosages of the products and mixtures; • Evaluation of different dosages in the test for Sensitivity of Bacteria to define the quantity of products and mixtures to be recommended in the fermentation process by comparing them to other antibiotics previously tested and approved being used in the current market; • Identification of the characteristics of products and mixtures during the handling; • Evaluation of products and mixtures at low pH by simulating the conventional treatment of the yeast milk. The studies were based on the cause vs. effect methodology, using the observation of the growth of microorganisms as a parameter for responses. […]
# bacteria [2] = assay: Determination of sensitivity of bacteria (Table 9); assay type: cell-based; conditions: product at 30 ppm (column 12; columns 11-14 also Free Bacter 3 ppm, Prevent 5 and 3 ppm)
# Experimental: as §1
# E. maxima = assay: Degree of intestinal lesion in inoculated chickens, E. maxima (Example 2); assay type: in vivo; conditions: 24th day of age; 0 no lesion, 4 maximum lesion; salinomycin 66 ppm, AC 1500 ppm
# From the text: (§2) Seven hundred and twenty chickens were randomly distributed into four treatments with six repetitions each, with 30 animals in each repetition. The birds were placed in a conventional yard divided into boxes.
# (§3) The four treatments were (1. Non-inoculated, without anticoccidial; 2. Inoculated without anticoccidial; 3. Inoculated-salinomycin (66 ppm); 4. inoculated-AC (1500 ppm)). The birds were inoculated at the 18th day of age with 0.5 liter of inocula containing 10,000, 9,000, and 8,000 sporulated oocysts of Eimeria tenella, Eimeria maxima, and Eimeria acervulina, respectively. This solution was mixed with the feed and offered to each group of 30 birds. At the 24th day of age, the degree of intestinal lesion was evaluated (0—no lesion, 4—maximum lesion). The AC composition was 12% castor oil, 40% cashew nut liquid, and 48% carrier.
# (§4) The experimental design utilized seven hundred and twenty chickens which were randomly distributed into four treatments and six repetitions. The averages were compared using the SNK test (Student-Newman-Keuls).
# [3] = tested on: Eimeria tenella, Eimeria maxima, and Eimeria acervulina; assay: Performance of chickens inoculated with Eimeria oocysts, first to 40th day of age (Example 2); assay type: in vivo; conditions: salinomycin 66 ppm, AC 1500 ppm, inoculated at 18th day
# From the text: as §2, §3, §4
# E. acervulina = assay: Degree of intestinal lesion in inoculated chickens, E. acervulina (Example 2); assay type: in vivo; conditions: 24th day of age; 0 no lesion, 4 maximum lesion; salinomycin 66 ppm, AC 1500 ppm
# From the text: as §2, §3, §4
# E. tenella = assay: Degree of intestinal lesion in inoculated chickens, E. tenella (Example 2); assay type: in vivo; conditions: 24th day of age; 0 no lesion, 4 maximum lesion; salinomycin 66 ppm, AC 1500 ppm
# From the text: as §2, §3, §4
SMILES,Performance in sensitivity of bacteria test (bacteria [1]),Performance in sensitivity of bacteria test (bacteria [2]),"Degree of intestinal lesion, E. maxima (E. maxima)",Final weight ([3]; 40th day of age),Alimentary conversion ([3]; first to 40th day of age),Ingestion ([3]; first to 40th day of age),Viability ([3]; first to 40th day of age),Weight gain ([3]; first to 40th day of age),"Degree of intestinal lesion, E. acervulina (E. acervulina)","Degree of intestinal lesion, E. tenella (E. tenella)"
"CCCCCC[C@@H](O)C/C=C\CCCCCCCC(=O)O [Product P2, Ricinoleic Acid]",negative results,negative results,–,–,–,–,–,–,–,–
CC[C@@H](C(=O)[C@@H](C)[C@@H](O)[C@H](C)[C@@H]1O[C@@H]([C@@H](CC)C(=O)O)CC[C@@H]1C)[C@H]1O[C@]2(C=C[C@@H](O)[C@]3(CC[C@@](C)([C@H]4CC[C@](O)(CC)[C@H](C)O4)O3)O2)[C@H](C)C[C@@H]1C [salinomycin],–,–,0.72 a,2305 b g,1.78 a,4018 bc g,97.5 a,2261 b g,0.72 b,1.61 a
